Reference: patent US20070072209A1, “Methods of treatment and diagnosis of Kaposi's sarcoma (KS) and KS related diseases” (priority 2005, published 2007)

Tests used:
Type in all cases: cell-based, human
Neuritin mRNA = experiment: qPCR of target mRNA after siRNA transfection: Neuritin; settings: relative to controls; RNA harvested day 3 post-transfection
Method: (§1) Quantitative PCR. Real-time PCR was performed on an ABI 7700 sequence detection system (Applied Biosystems). To normalize gene expression between mock and infected samples, 18S RNA, beta-Actin and GAPDH were assessed. […] Total RNA was treated with Dnase I (Dnase Free:Ambion) before synthesis of cDNA by random hexamers and Superscript II (Invitrogen). […] Relative expression values between mock and infected samples were calculated by the comparative CT Method as previously described (Moses et al, 2002). […]
(§2) siRNA treatment and Focus Inhibition Assay. siRNA oligonucleotides were designed using the oligoengine design tool (Oligoengine, Seattle, Wash.). […] Cells were monitored for up to 14 days for evidence of foci-formation, as described for the PMO-AS assays. […]
Specifically, FIGS. 6A-D show, according to particular aspects of the present invention, small interfering RNA (siRNA) inhibition of RDC1, Neuritin, INSR and IGFBP2. […] Cells were treated with siRNA and monitored for up to 14 days. To calculate mRNA degradation, mRNA was isolated and qPCR was performed. mRNA levels were calculated relative to a FITC-tagged control siRNA (100%). […]

KSHV-infected DMVEC = experiment: siRNA treatment and focus inhibition assay; settings: observed up to 14 days post-transfection
Method: siRNA treatment and Focus Inhibition Assay. siRNA oligonucleotides were designed using the oligoengine design tool (Oligoengine, Seattle, Wash.). RNA olionucleotides were purchased from Oligoengine or Dharmacon Inc. (Lafayette, Colo.). […] The twenty-one nucleotide RNA oligos were resuspended according to manufacturer's instructions to obtain either 20 microM or 50 microM solutions and delivered to DMVEC by transfection. For transfection, cells were seeded into 35 mm plates for overnight incubation, and transfections were performed at approximately 80% confluence according to published methods. Briefly, from a 20 microM siRNA stock solution, 12 microL of siRNA was added (240 pmol) to 200 microL OPTI-MEM medium (Gibco). After a 10 minute incubation, 12 microL Oligofectamine (Invitrogen) diluted in 48 microL OPTI-MEM was mixed with the diluted siRNA and incubated for an addition 20 minutes. The complex was added dropwise to a […] containing 1 ml of complete endothelial growth medium. Cells were monitored for up to 14 days for evidence of foci-formation, as described for the PMO-AS assays. Control Cy3-Luciferase GL2 Duplex siRNA (Dharmacon) was used to monitor transient tranfection and the duration of siRNA expression in endothelial cells. Cy3 siRNA was visible for over 3 weeks post-transfection. […]

RDC1 mRNA = experiment: qPCR of target mRNA after siRNA transfection: RDC1; settings: relative to FITC-tagged control siRNA or transfection reagent alone; KSHV-DMVEC
Method: as §1, §2
Specifically, FIGS. 6A-D show, according to particular aspects of the present invention, small interfering RNA (siRNA) inhibition of RDC1, Neuritin, INSR and IGFBP2. […] Cells were treated with siRNA and monitored for up to 14 days. To calculate mRNA degradation, mRNA was isolated and qPCR was performed. mRNA levels were calculated relative to a FITC-tagged control siRNA (100%).

Row | Substance | reduction in Neuritin mRNA levels (Neuritin mRNA) | KSHV-induced focus formation / contact inhibition after siRNA (KSHV-infected DMVEC) | reduction of RDC1 mRNA (RDC1 mRNA)
1 | Neuritin siRNA: Neuritin siRNA, AAAGATATCTGATTAATTCCA (SEQ ID NO:42) (guide AAAGATATCTGATTAATTCCA; listed as DNA, chemistry not given here) | 63% | maintained contact-inhibited growth | 
2 | RDC1 siRNA #1: RDC1 siRNA giving the larger mRNA decrease; presumably RDC1-234, AACATGCCCAACAAAAGCGTC (guide AACATGCCCAACAAAAGCGTC; listed as DNA, chemistry not given here) |  | more stringent maintenance of contact inhibition | 56%
